Like-named read-outs stand apart in the source and are kept apart here.
What was measured:
[1] = biological target: Mcl-1 (Homo sapiens (Human), UniProt Q07820); test: Fluorescence polarization anisotropy (FPA) competition assay, FITC-Bak or FITC-Bim BH3 peptide; format: binding; conditions: read-out: Ki for Inhibition of Mcl-1 by FPA assay
[2] = tested on: H929 human cancer cell lines; test: Cellular viability / proliferation (Cell TiterGlo, 72 h); format: cell-based
Procedure, shortened: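 1,000 cells/well, 10% FBS medium; compound added at 24 h, 2-fold dilutions from 50 μM top, DMSO <1% final. 72 h exposure, CellTiterGlo 30 min RT dark, luminescence read. IC50 by 4-parameter fit.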

[3] = Homo sapiens, NCI-H929, 72 h, read-out: GI50 on cellular proliferation of H929 human cancer cell lines, H929 cells, 72 h, Cell TiterGlo, 10% FBS
[4] = read-out: GI50 on cellular proliferation of H929 human cancer cell lines, H929 cells, 72 h, Cell TiterGlo, 10% FBS

Chain of Mcl-1 (Q07820 172-327): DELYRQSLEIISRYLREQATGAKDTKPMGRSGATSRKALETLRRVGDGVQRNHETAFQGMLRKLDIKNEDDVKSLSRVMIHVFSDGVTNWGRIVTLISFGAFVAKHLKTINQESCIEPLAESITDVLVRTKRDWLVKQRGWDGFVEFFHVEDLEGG

Row | Compound | Ki [1] | GI50 [2, 3] | GI50 [2, 4] | GI50 ([2]; H929 cells, 72 h, Cell TiterGlo, 10% FBS, read-out: GI50 on cellular proliferation of H929 human cancer cell lines)
1 | CC(=O)N1CCN(Cc2nc(C)c(-c3c(Cl)ccc4c(CCCOc5cc(C)c(Cl)c(C)c5)c5n(c34)[C@H](C)CN(c3cn(C)c4ccc(C(=O)O)cc34)C5=O)c(C)n2)CC1 [Example 433, (R)-3-(6-(2-((4-Acetylpiperazin-1-yl)methyl)-4,6-dimethylpyrimidin-5-yl)-7-chloro-10-(3-(4-chloro-3,5-dimethylphenoxy)propyl)-4-methyl-1-oxo-3,4-dihydropyrazino[1,2-a]indol-2(1H)-yl)-1-methyl-1H-indole-5-carboxylic acid] | 0.0017 µM | 0.44 µM | – | –
2 | Cc1cc(OCCCc2c3n(c4c(-c5c(C)n[nH]c5C)c(Cl)ccc24)CCCN(c2cc(C(=O)O)cc4c2ccn4C)C3=O)cc(C)c1Cl [Example 72, 4-(8-chloro-11-(3-(4-chloro-3,5-dimethylphenoxy)propyl)-7-(3,5-dimethyl-1H-pyrazol-4-yl)-1-oxo-4,5-dihydro-1H-[1,4]diazepino[1,2-a]indol-2(3H)-yl)-1-methyl-1H-indole-6-carboxylic acid] | < 0.001 µM | 4.7 µM | – | –
3 | Cc1cc(OCCCc2c3n(c4c(-c5c(C)nn(C)c5C)c(Cl)ccc24)[C@H](C)CN(c2cccc4c2cc(C(=O)O)n4C(C)C)C3=O)cc(C)c1Cl [Example 197, (R)-4-(7-Chloro-10-(3-(4-chloro-3,5-dimethylphenoxy)propyl)-4-methyl-1-oxo-6-(1,3,5-trimethyl-1H-pyrazol-4-yl)-3,4-dihydropyrazino[1,2-a]indol-2(1H)-yl)-1-isopropyl-1H-indole-2-carboxylic acid] | < 0.001 µM | 0.67 µM | – | –
4 | Cc1cc(N2C[C@@H](C)n3c(c(CCCOc4cc(C)c(Cl)c(C)c4)c4ccc(Cl)c(-c5c(C)nn(C)c5C)c43)C2=O)c2c(c1)cc(C(=O)O)n2Cc1cccc(C)n1 [Example 457, (R)-7-(7-Chloro-10-(3-(4-chloro-3,5-dimethylphenoxy)propyl)-4-methyl-1-oxo-6-(1,3,5-trimethyl-1H-pyrazol-4-yl)-3,4-dihydropyrazino[1,2-a]indol-2(1H)-yl)-5-methyl-1-((6-methylpyridin-2-yl)methyl)-1H-indole-2-carboxylic acid] | < 0.001 µM | < 0.2 µM | – | –
5 | Cc1cc(OCCCc2c3n(c4c(-c5c(C)nn(C)c5C)c(Cl)ccc24)[C@H](C)CN(c2nn(C)c4cccc(C(=O)O)c24)C3=O)cc(C)c1Cl [Example 179, (R)-3-(7-Chloro-10-(3-(4-chloro-3,5-dimethylphenoxy)propyl)-4-methyl-1-oxo-6-(1,3,5-trimethyl-1H-pyrazol-4-yl)-3,4-dihydropyrazino[1,2-a]indol-2(1H)-yl)-1-methyl-1H-indazole-4-carboxylic acid] | < 0.001 µM | – | 4.7 µM | –
6 | Cc1cc(OCCCc2c3n(c4c(-c5c(C)ncnc5C)c(Cl)ccc24)CCCN(c2cccc4cc(C(=O)O)n(Cc5ccccn5)c24)C3=O)cc(C)c1Cl [Example 279, 7-(8-Chloro-11-(3-(4-chloro-3,5-dimethylphenoxy)propyl)-7-(4,6-dimethylpyrimidin-5-yl)-1-oxo-4,5-dihydro-1H-[1,4]diazepino[1,2-a]indol-2(3H)-yl)-1-(pyridin-2-ylmethyl)-1H-indole-2-carboxylic acid] | 0.001 µM | 3.3 µM | – | –
7 | Cc1cc(OCCCc2c3n(c4c(-c5c(C)nn(C)c5C)c(Cl)ccc24)[C@H](C)CN(c2cccc4nc(C(=O)O)ccc24)C3=O)cc(C)c1Cl [Example 184, (R)-5-(7-chloro-10-(3-(4-chloro-3,5-dimethylphenoxy)propyl)-4-methyl-1-oxo-6-(1,3,5-trimethyl-1H-pyrazol-4-yl)-3,4-dihydropyrazino[1,2-a]indol-2(1H)-yl)quinoline-2-carboxylic acid] | < 0.001 µM | 0.77 µM | – | –
8 | Cc1cc(OCCCc2c3n(c4c(-c5c(C)nn(C)c5C)c(Cl)ccc24)[C@H](C)CN(c2cccc4cc(C(=O)O)n(Cc5ccccn5)c24)C3=O)cc(C)c1Cl [Example 249, 7-[(4R)-7-chloro-10-[3-(4-chloro-3,5-dimethyl-phenoxy)propyl]-4-methyl-1-oxo-6-(1,3,5-trimethylpyrazol-4-yl)-3,4-dihydropyrazino[1,2-a]indol-2-yl]-1-(2-pyridylmethyl)indole-2-carboxylic acid] | < 0.001 µM | – | 0.49 µM | –
9 | COc1ccc(N2C[C@@H](C)n3c(c(CCCOc4cc(C)c(Cl)c(C)c4)c4ccc(Cl)c(-c5c(C)nn(C)c5C)c43)C2=O)c2c1cc(C(=O)O)n2Cc1ccccn1 [Example 313, 7-[(4R)-7-chloro-10-[3-(4-chloro-3,5-dimethyl-phenoxy)propyl]-4-methyl-1-oxo-6-(1,3,5-trimethylpyrazol-4-yl)-3,4-dihydropyrazino[1,2-a]indol-2-yl]-4-methoxy-1-(2-pyridylmethyl)indole-2-carboxylic acid] | < 0.001 µM | < 0.2 µM | – | –
10 | Cc1cc(OCCCc2c3n(c4c(-c5c(C)ncnc5C)c(Cl)ccc24)CCCN(c2cn(C)c4ccc(C(=O)O)cc24)C3=O)cc(C)c1Cl [Example 156, 3-[8-Chloro-11-[3-(4-chloro-3,5-dimethyl-phenoxy)propyl]-7-(4,6-dimethylpyrimidin-5-yl)-1-oxo-4,5-dihydro-3H-[1,4]diazepino[1,2-a]indol-2-yl]-1-methyl-indole-5-carboxylic acid] | < 0.001 µM | 0.26 µM | – | –
11 | Cc1cc(OCCCc2c3n(c4c(-c5c(C)n[nH]c5C)c(Cl)ccc24)CCCN(c2cc(C(=O)O)c4ccn(C)c4c2)C3=O)cc(C)c1Cl [Example 58, 6-(8-Chloro-11-(3-(4-chloro-3,5-dimethylphenoxy)propyl)-7-(3,5-dimethyl-1H-pyrazol-4-yl)-1-oxo-4,5-dihydro-1H-[1,4]diazepino[1,2-a]indol-2(3H)-yl)-1-methyl-1H-indole-4-carboxylic acid] | < 0.001 µM | 3 µM | – | –
12 | Cc1cc(OCCCc2c3n(c4c(-c5c(C)nn(C)c5C)c(Cl)ccc24)CCCN(c2cc(C(=O)O)c4ncn(C)c4c2)C3=O)cc(C)c1Cl [Example 7, 6-[8-chloro-11-[3-(4-chloro-3,5-dimethyl-phenoxy)propyl]-1-oxo-7-(1,3,5-trimethylpyrazol-4-yl)-4,5-dihydro-3H-[1,4]diazepino[1,2-a]indol-2-yl]-1-methyl-benzimidazole-4-carboxylic acid] | 0.0022 µM | 13 µM | – | –
13 | Cc1cc(OCCCc2c3n(c4c(-c5c(C)nn(C)c5C)c(Cl)ccc24)[C@H](C)CN(c2cccc4ccc(C(=O)O)cc24)C3=O)cc(C)c1Cl [Example 349, (M, R)-8-(7-Chloro-10-(3-(4-chloro-3,5-dimethylphenoxy)propyl)-4-methyl-1-oxo-6-(1,3,5-trimethyl-1H-pyrazol-4-yl)-3,4-dihydropyrazino[1,2-a]indol-2(1H)-yl)-2-naphthoic acid] | 0.0028 µM | – | – | 0.78 µM
14 | Cc1cc(OCCCc2c3n(c4c(-c5c(C)nn(C)c5C)c(Cl)ccc24)[C@H](C)CN(c2nn(CCN4CCOCC4)c4cc(C(=O)O)ccc24)C3=O)cc(C)c1Cl [Example 50, (R)-3-(7-chloro-10-(3-(4-chloro-3,5-dimethylphenoxy)propyl)-4-methyl-1-oxo-6-(1,3,5-trimethyl-1H-pyrazol-4-yl)-3,4-dihydropyrazino[1,2-a]indol-2(1H)-yl)-1-(2-morpholinoethyl)-1H-indazole-6-carboxylic acid] | < 0.001 µM | 0.71 µM | – | –
15 | Cc1cc(OCCCc2c3n(c4c(-c5c(C)nn(C)c5C)c(Cl)ccc24)[C@H](C)CN(c2cccc4cc(C(=O)O)ccc24)C3=O)cc(C)c1Cl [Example 186, (R)-5-(7-Chloro-10-(3-(4-chloro-3,5-dimethylphenoxy)propyl)-4-methyl-1-oxo-6-(1,3,5-trimethyl-1H-pyrazol-4-yl)-3,4-dihydropyrazino[1,2-a]indol-2(1H)-yl)-2-naphthoic acid] | < 0.001 µM | < 0.2 µM | – | –
16 | Cc1cc(OCCCc2c3n(c4c(-c5c(C)nn(CC(=O)O)c5C)c(Cl)ccc24)CCCN(c2cccc4cccnc24)C3=O)cc(C)c1Cl [Example 144, 2-(4-(8-Chloro-11-(3-(4-chloro-3,5-dimethylphenoxy)propyl)-1-oxo-2-(quinolin-8-yl)-2,3,4,5-tetrahydro-1H-[1,4]diazepino[1,2-a]indol-7-yl)-3,5-dimethyl-1H-pyrazol-1-yl)acetic acid] | < 0.001 µM | 6.5 µM | – | –
17 | Cc1cc(OCCCc2c3n(c4c(-c5c(C)ncnc5C)c(Cl)ccc24)[C@H](C)CN(c2cn(C)c4cc(C(=O)O)ccc24)C3=O)cc(C)c1Cl [Example 153, 3-[(4R)-7-chloro-10-[3-(4-chloro-3,5-dimethyl-phenoxy)propyl]-6-(4,6-dimethylpyrimidin-5-yl)-4-methyl-1-oxo-3,4-dihydropyrazino[1,2-a]indol-2-yl]-1-methyl-indole-6-carboxylic acid] | < 0.001 µM | 0.41 µM | – | –
18 | Cc1nn(C)c(C)c1-c1c(Cl)ccc2c(CCCOc3ccccc3)c3n(c12)[C@H](C)CN(c1cn(C)c2ccc(C(=O)O)cc12)C3=O [Example 408, (R)-3-(7-Chloro-4-methyl-1-oxo-10-(3-phenoxypropyl)-6-(1,3,5-trimethyl-1H-pyrazol-4-yl)-3,4-dihydropyrazino[1,2-a]indol-2(1H)-yl)-1-methyl-1H-indole-5-carboxylic acid] | 0.0022 µM | 3.2 µM | – | –
19 | Cc1cc(OCCCc2c3n(c4c(-c5c(C)nn(C)c5C)c(Cl)ccc24)CCCN(c2cc(C(=O)O)c4c(Cl)cn(C)c4c2)C3=O)cc(C)c1Cl [Example 3, 3-Chloro-6-(8-chloro-11-(3-(4-chloro-3,5-dimethylphenoxy)propyl)-1-oxo-7-(1,3,5-trimethyl-1H-pyrazol-4-yl)-4,5-dihydro-1H-[1,4]diazepino[1,2-a]indol-2(3H)-yl)-1-methyl-1H-indole-4-carboxylic acid] | 0.0011 µM | 6.6 µM | – | –
